In US8192962B2, “Processes for detecting toxic substances” (Daikin Industries, Ltd., priority 2001, dated 2012):

Tested on: Energy system protein genes
Test: DNA chip mRNA expression in yeast, energy system protein genes (Table 4)
Assay type: cell-based, Saccharomyces cerevisiae S288C
Method in brief: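 Ratios compare mRNA levels in stressed and control S. cerevisiae. Each toxicant was applied for two hours to log-phase cultures at 25° C. at a sub-lethal, growth-inhibiting level; fluorescent cDNA (Cy3- or Cy5-dUTP) was hybridized to a genome-wide yeast chip for over 12 h at 65° C.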

Measured: The level of expressed mRNA in the presence of chemical substance/The level of expressed mRNA in the absence of chemical substance

COc1cc(CNC(=O)CCCCC=CC(C)C)ccc1O [(12), 8-methyl-N-vanillyl-6-nonenamide]
2.3: yeast gene YCL040W
1.6: yeast gene YGL062W | yeast gene YLR345W
1.1: yeast gene YCR046C, cells incubated two hours with the chemical substance | yeast gene YDR001C | yeast gene YDR079W, cells incubated two hours with the chemical substance | yeast gene YDR231C | yeast gene YDR298C, cells incubated two hours with the chemical substance | yeast gene YGL205W, cells incubated two hours with the chemical substance | yeast gene YMR205C, cells incubated two hours with the chemical substance | yeast gene YPL262W, cells incubated two hours with the chemical substance
0.5: yeast gene YCR005C | yeast gene YLR295C, cells incubated two hours with the chemical substance, 25° C., YPD medium
1.3: yeast gene YBR221C, cells incubated two hours with the chemical substance | yeast gene YDR178W, cells incubated two hours with the chemical substance | yeast gene YER178W | yeast gene YKL060C, cells incubated two hours with the chemical substance | yeast gene YNL071W | yeast gene YOL086C, cells incubated two hours with the chemical substance
1.8: yeast gene YKR097W | yeast gene YML054C
0.7: yeast gene YBR185C, cells incubated two hours with the chemical substance | yeast gene YJL166W, cells incubated two hours with the chemical substance | yeast gene YOR388C, cells incubated two hours with the chemical substance
0.9: yeast gene YCR105W, cells incubated two hours with the chemical substance | yeast gene YDL181W, cells incubated two hours with the chemical substance | yeast gene YDR377W, cells incubated two hours with the chemical substance | yeast gene YGL191W, cells incubated two hours with the chemical substance | yeast gene YGL256W, cells incubated two hours with the chemical substance | yeast gene YGR174C, cells incubated two hours with the chemical substance | yeast gene YKR058W, cells incubated two hours with the chemical substance, 25° C., YPD medium | yeast gene YLR258W, cells incubated two hours with the chemical substance | yeast gene YML120C, cells incubated two hours with the chemical substance | yeast gene YMR261C, cells incubated two hours with the chemical substance | yeast gene YNL202W, cells incubated two hours with the chemical substance | yeast gene YNL331C
1.0: yeast gene YBL099W, cells incubated two hours with the chemical substance | yeast gene YBR001C, cells incubated two hours with the chemical substance | yeast gene YDL067C, cells incubated two hours with the chemical substance | yeast gene YDL107W, cells incubated two hours with the chemical substance | yeast gene YFL057C | yeast gene YGL018C, cells incubated two hours with the chemical substance | yeast gene YGR062C, cells incubated two hours with the chemical substance, 25° C., YPD medium | yeast gene YIL160C | yeast gene YJL216C, cells incubated two hours with the chemical substance | yeast gene YJR155W | yeast gene YKL016C, cells incubated two hours with the chemical substance | yeast gene YKR009C, cells incubated two hours with the chemical substance | yeast gene YLR304C, cells incubated two hours with the chemical substance | yeast gene YPL061W, cells incubated two hours with the chemical substance
2.8: yeast gene YDL174C
2.2: yeast gene YGR192C | yeast gene YHR179W
1.4: yeast gene YDR050C, cells incubated two hours with the chemical substance | yeast gene YLR044C, cells incubated two hours with the chemical substance | yeast gene YPL171C | yeast gene YPR184W, cells incubated two hours with the chemical substance
0.6: yeast gene YDR529C, cells incubated two hours with the chemical substance | yeast gene YEL039C, cells incubated two hours with the chemical substance | yeast gene YJL121C, cells incubated two hours with the chemical substance | yeast gene YLR038C, cells incubated two hours with the chemical substance | yeast gene YLR284C, cells incubated two hours with the chemical substance | yeast gene YLR377C, cells incubated two hours with the chemical substance | yeast gene YLR395C, cells incubated two hours with the chemical substance | yeast gene YPL275W, cells incubated two hours with the chemical substance | yeast gene YPL276W, cells incubated two hours with the chemical substance
2.0: yeast gene YNL241C
1.7: yeast gene YFR053C | yeast gene YGR254W | yeast gene YOR178C, cells incubated two hours with the chemical substance
1.5: yeast gene YJR009C
2.4: yeast gene YDL021W | yeast gene YJL052W
3.3: yeast gene YGR043C
1.9: yeast gene YGR244C
0.8: yeast gene YAL060W | yeast gene YBL058W, cells incubated two hours with the chemical substance | yeast gene YDL078C, cells incubated two hours with the chemical substance | yeast gene YEL024W, cells incubated two hours with the chemical substance | yeast gene YGL187C, cells incubated two hours with the chemical substance | yeast gene YIR031C, cells incubated two hours with the chemical substance | yeast gene YJR048W | yeast gene YJR121W, cells incubated two hours with the chemical substance | yeast gene YKL141W, cells incubated two hours with the chemical substance | yeast gene YKL148C, cells incubated two hours with the chemical substance | yeast gene YLL041C, cells incubated two hours with the chemical substance | yeast gene YML087C | yeast gene YML129C, cells incubated two hours with the chemical substance | yeast gene YMR073C, cells incubated two hours with the chemical substance | yeast gene YMR118C | yeast gene YMR267W, cells incubated two hours with the chemical substance, 25° C., YPD medium | yeast gene YOL165C | yeast gene YOR142W, cells incubated two hours with the chemical substance | yeast gene YPL031C, cells incubated two hours with the chemical substance | yeast gene YPL240C | yeast gene YPR048W, cells incubated two hours with the chemical substance
1.2: yeast gene YCR012W | yeast gene YGR087C, cells incubated two hours with the chemical substance | yeast gene YLR134W, cells incubated two hours with the chemical substance | yeast gene YLR354C, cells incubated two hours with the chemical substance | yeast gene YMR323W, cells incubated two hours with the chemical substance
3.6: yeast gene YPL088W
